Measurements taken from ChEMBL document CHEMBL3885881, “DrugMatrix”.

Organism: Rattus norvegicus
Experiment: DrugMatrix - Regimen: Daily Repeat
Assay type: toxicity, organism-based, Sprague-Dawley
Design: regimen Daily Repeat, gender Male, age 6-8 weeks
Conditions: in vivo, sc, route subcutaneous, […]; for ABSOLUTE BASOPHIL / ABSOLUTE EOSINOPHIL / ABSOLUTE LYMPHOCYTE / ABSOLUTE MONOCYTE / ABSOLUTE SEGMENTED NEUTROPHIL / BASOPHIL / EOSINOPHIL / ERYTHROCYTE COUNT / HEMATOCRIT / HEMOGLOBIN / LEUKOCYTE COUNT / LYMPHOCYTE / MEAN CORPUSCULAR HEMOGLOBIN / MEAN CORPUSCULAR HEMOGLOBIN CONCENTRATION / MEAN CORPUSCULAR VOLUME / MONOCYTE / NEUTROPHIL / NUCLEATED RED BLOOD CELLS / PLATELET COUNT: tissue Blood; for ALANINE AMINOTRANSFERASE / ALBUMIN / ALKALINE PHOSPHATASE / ASPARTATE AMINOTRANSFERASE / BLOOD UREA NITROGEN / CARBON DIOXIDE / CHLORIDE / CHOLESTEROL / CREATINE PHOSPHOKINASE / CREATININE / GLUCOSE / LACTATE DEHYDROGENASE / LIPASE / PHOSPHORUS / POTASSIUM / SODIUM / TOTAL BILIRUBIN / TOTAL PROTEIN / URIC ACID: tissue Plasma
[1] = 27 mg/kg, 120 h, dose level Low, time 5 day
[2] = 1200 mg/kg, 72 h, dose level High, time 3 day
[3] = 1200 mg/kg, 120 h, dose level High, time 5 day

Clc1ccc(CSC(Cn2ccnc2)c2ccc(Cl)cc2Cl)cc1 (centres undefined) [SULCONAZOLE]
ABSOLUTE BASOPHIL [1]: 0 CELLS/uL
ABSOLUTE EOSINOPHIL [1]: 176 CELLS/uL
ABSOLUTE LYMPHOCYTE [1]: 10589.67 CELLS/uL
ABSOLUTE MONOCYTE [1]: 178.33 CELLS/uL
ABSOLUTE SEGMENTED NEUTROPHIL [1]: 2489.33 CELLS/uL
BASOPHIL [1]: 0%
EOSINOPHIL [1]: 1.33%
ERYTHROCYTE COUNT [1]: 5.26 x10E6/uL
HEMATOCRIT [1]: 33.93%
HEMOGLOBIN [1]: 13 G/DL
LEUKOCYTE COUNT [1]: 13.43 x10E3/uL
LYMPHOCYTE [1]: 78.33%
MEAN CORPUSCULAR HEMOGLOBIN [1]: 24.73 pg
MEAN CORPUSCULAR HEMOGLOBIN CONCENTRATION [1]: 38.3 G/DL
MEAN CORPUSCULAR VOLUME [1]: 64.6 fL
MONOCYTE [1]: 1.33%
NEUTROPHIL [1]: 19%
NUCLEATED RED BLOOD CELLS [1]: 0 /100WBC
PLATELET COUNT [1]: 1332 x10E3/uL
ALANINE AMINOTRANSFERASE [1]: 56 u/L
ALBUMIN [1]: 3.9 G/DL
ALKALINE PHOSPHATASE [1]: 279.67 u/L
ASPARTATE AMINOTRANSFERASE [1]: 81.67 u/L
BLOOD UREA NITROGEN [1]: 17 mg/dL
CARBON DIOXIDE [1]: 25.33 mmol/L
CHLORIDE [1]: 105.67 MEQ/L
CHOLESTEROL [1]: 64.67 mg/dL
CREATINE PHOSPHOKINASE [1]: 435.33 u/L
CREATININE [1]: 0.16 mg/dL
GLUCOSE [1]: 162.33 mg/dL
LACTATE DEHYDROGENASE [1]: 119.67 u/L
LIPASE [1]: 7.33 u/L
PHOSPHORUS [1]: 14.4 mg/dL
POTASSIUM [1]: 6.46 MEQ/L
SODIUM [1]: 145.43 MEQ/L
TOTAL BILIRUBIN [1]: 0.17 mg/dL
TOTAL PROTEIN [1]: 5.9 G/DL
URIC ACID [1]: 1.63 mg/dL
ABSOLUTE BASOPHIL [2]: 0 CELLS/uL
ABSOLUTE EOSINOPHIL [2]: 83.33 CELLS/uL
ABSOLUTE LYMPHOCYTE [2]: 7163.33 CELLS/uL
ABSOLUTE MONOCYTE [2]: 161.33 CELLS/uL
ABSOLUTE SEGMENTED NEUTROPHIL [2]: 2925.33 CELLS/uL
BASOPHIL [2]: 0%
EOSINOPHIL [2]: 1%
ERYTHROCYTE COUNT [2]: 5.45 x10E6/uL
HEMATOCRIT [2]: 33.7%
HEMOGLOBIN [2]: 12.87 G/DL
LEUKOCYTE COUNT [2]: 10.33 x10E3/uL
LYMPHOCYTE [2]: 68.33%
MEAN CORPUSCULAR HEMOGLOBIN [2]: 23.6 pg
MEAN CORPUSCULAR HEMOGLOBIN CONCENTRATION [2]: 38.2 G/DL
MEAN CORPUSCULAR VOLUME [2]: 61.83 fL
MONOCYTE [2]: 1.67%
NEUTROPHIL [2]: 29%
NUCLEATED RED BLOOD CELLS [2]: 0 /100WBC
PLATELET COUNT [2]: 1327 x10E3/uL
ALANINE AMINOTRANSFERASE [2]: 43 u/L
ALBUMIN [2]: 3.9 G/DL
ALKALINE PHOSPHATASE [2]: 294.67 u/L
ASPARTATE AMINOTRANSFERASE [2]: 79.33 u/L
BLOOD UREA NITROGEN [2]: 14 mg/dL
CARBON DIOXIDE [2]: 30 mmol/L
CHLORIDE [2]: 109 MEQ/L
CHOLESTEROL [2]: 69.33 mg/dL
CREATINE PHOSPHOKINASE [2]: 308.33 u/L
CREATININE [2]: 0.2 mg/dL
GLUCOSE [2]: 133.67 mg/dL
LACTATE DEHYDROGENASE [2]: 112.67 u/L
LIPASE [2]: 8 u/L
PHOSPHORUS [2]: 10.93 mg/dL
POTASSIUM [2]: 6.11 MEQ/L
SODIUM [2]: 149.45 MEQ/L
TOTAL BILIRUBIN [2]: 0.13 mg/dL
TOTAL PROTEIN [2]: 6.27 G/DL
URIC ACID [2]: 0.83 mg/dL
ABSOLUTE BASOPHIL [3]: 0 CELLS/uL
ABSOLUTE EOSINOPHIL [3]: 276.67 CELLS/uL
ABSOLUTE LYMPHOCYTE [3]: 12157 CELLS/uL
ABSOLUTE MONOCYTE [3]: 40.67 CELLS/uL
ABSOLUTE SEGMENTED NEUTROPHIL [3]: 4359 CELLS/uL
BASOPHIL [3]: 0%
EOSINOPHIL [3]: 1.67%
ERYTHROCYTE COUNT [3]: 5.75 x10E6/uL
HEMATOCRIT [3]: 35.17%
HEMOGLOBIN [3]: 13.07 G/DL
LEUKOCYTE COUNT [3]: 16.83 x10E3/uL
LYMPHOCYTE [3]: 72.33%
MEAN CORPUSCULAR HEMOGLOBIN [3]: 22.73 pg
MEAN CORPUSCULAR HEMOGLOBIN CONCENTRATION [3]: 37.2 G/DL
MEAN CORPUSCULAR VOLUME [3]: 61.23 fL
MONOCYTE [3]: 0.33%
NEUTROPHIL [3]: 25.67%
NUCLEATED RED BLOOD CELLS [3]: 0 /100WBC
PLATELET COUNT [3]: 1614.33 x10E3/uL
ALANINE AMINOTRANSFERASE [3]: 39.67 u/L
ALBUMIN [3]: 3.47 G/DL
ALKALINE PHOSPHATASE [3]: 268.67 u/L
ASPARTATE AMINOTRANSFERASE [3]: 76.33 u/L
BLOOD UREA NITROGEN [3]: 16.67 mg/dL
CARBON DIOXIDE [3]: 25 mmol/L
CHLORIDE [3]: 104.33 MEQ/L
CHOLESTEROL [3]: 59.67 mg/dL
CREATINE PHOSPHOKINASE [3]: 355 u/L
CREATININE [3]: 0.23 mg/dL
GLUCOSE [3]: 160.67 mg/dL
LACTATE DEHYDROGENASE [3]: 169.33 u/L
LIPASE [3]: 7.33 u/L
PHOSPHORUS [3]: 12.67 mg/dL
POTASSIUM [3]: 6.48 MEQ/L
SODIUM [3]: 144.93 MEQ/L
TOTAL BILIRUBIN [3]: 0.13 mg/dL
TOTAL PROTEIN [3]: 6.1 G/DL
URIC ACID [3]: 2.87 mg/dL
